US6649628B1, “N-[2-hydroxy-3-(1-piperidinyl)propoxy]pyridine-1-oxide-3-carboximidoyl chloride and its use in the treatment of insulin resistance” (Biorex Kutato es Fejleszto RT, priority 1999, dated 2003)
Marks after values point to notes of the source that are not given here.

Test system: STZ diabetic Wistar rats
Assay: Preliminary test: N-oxide derivatives of bimoclomol on motor and sensor nerve conduction velocity deficit
Format: in vivo, rat
Details: for Improvement of nerve conduction velocity (%) motor (MNCV) / Improvement of nerve conduction velocity (%) sensor (SNCV): 5 mg/kg
Description: In a preliminary test the effectiveness of the three N-oxide derivatives of bimoclomol on motor and sensor neuropathy in STZ diabetic Wistar rats were studied. The effectiveness of the three bimoclomol N-oxide derivatives in improving the peripheral motor and sensor nerve conduction velocity deficit caused by streptozotocine-induced diabetes was determined with use of the method described in detail in Experiment 2.
(Graphpad Instat, San Diego, Calif.).

[O-][n+]1cccc(C(Cl)=NOCC(O)CN2CCCCC2)c1 (centres unmarked) [N-[2-hydroxy-3-(1-piperidinyl)-1-propoxy]-pyridine-1-oxide-3-carboximidoyl chloride]
Improvement of nerve conduction velocity (%) motor (MNCV): 66,5% | Improvement of nerve conduction velocity (%) sensor (SNCV): 63,4% | effect on the motor and sensor neuropathy compared with bimoclomol (N-oxide derivatives 5 mg/kg vs bimoclomol 20 mg/kg): equivalent with bimoclomol

[O-][n+]1cccc(C(Cl)=NOCC(O)C[N+]2([O-])CCCCC2)c1 (centres unmarked) [double N-oxide derivative of bimoclomol]
Improvement of nerve conduction velocity (%) motor (MNCV): 25,9* % | Improvement of nerve conduction velocity (%) sensor (SNCV): 29,1** %
